Measurements from patent US7304174B2, “CaSR antagonist” (Japan Tobacco Inc., priority 2003, dated 2007).

Experiments:
PTH secretion = assay: Reproductive test of NPS-2143 of the reference (PTH secretion); type: in vivo
PTH release = conditions: cited from earlier work
[1] = OVX rat, 100 μmol/kg; cited from earlier work
[2] = test system: osteoblast and osteoclast; conditions: in vitro; cited from earlier work

CC(C)(Cc1ccc2ccccc2c1)NC[C@@H](O)COc1cccc(Cl)c1C#N [NPS-2143]
PTH secretion promoting action (PTH secretion): sustained secretion promoting action
Blood PTH concentration 4 hours later (PTH release; OVX rat, 100 μmol/kg): about 140 pg/ml
Blood PTH concentration in 30 minutes (PTH release; OVX rat, rat PTH (1-34) 5 μg/kg, NPS-2143 100 μmol/kg): about 115 pg/ml
Effect on bone (bone density) (PTH release; OVX rats, oral): free of bone decrease or bone increase
Release of PTH (PTH release; OVX rats, oral): significantly promotes release of PTH
Blood concentration of NPS-2143 8 hours after the administration [1]: not less than 100 ng/ml
Blood concentration of NPS-2143 24 hours later [1]: ≤ 10 ng/mL
Direct effect on osteoblast and osteoclast [2]: did not show any direct effect
